Like-named read-outs stand apart in the source and are kept apart here.
Key:
PKB gamma = target: T1, PKB gamma (Homo sapiens, UniProt Q9Y243); test: Kinase assay in U87 cells using anti PKB gamma antibody; type: cell-based; conditions: U-87 MG, 1 h, after 60 min, read-out: PKB gamma isoform activity, reduction of activity to
T1 construct: endogenous in cells; host or cells: U87 cells
Method: (§1) In preparation for this assay, each cell line was seeded at a density of 3 times 1,000,000 cells per plate onto 150 mm culture dishes and allowed to establish o/n at 37 deg C. A confluency of 50–60% was obtained to ensure maximal drug penetration into each cell. Once the cells were adherent to the culture plates, there were treated with PKB inhibitor KP-23172 for a final conc. of 5 uM. Each culture plate was lysed on ice at specific time intervals using 1% NP-40 lysis buffer containing various protease inhibitors; 10 ug/uL aprotinin, 10 ug/ul leupeptin, 1 ug/ul pepstatin, 1 M beta-glycerophosphate and 100 mM PMSF. The resulting lysates were centrifuged at 15K×g at 4 deg C. for 5 min and then assayed for its protein conc. using Bradford's Reagent and absorbance measurements at 595 nm. Equal amounts of protein were transferred to a new centrifuge tube and treated with anti-PKB-PH antibody (Kinetek #XXP-021), anti-PKBalpha antibody (Signal Transduction #67220), or anti-PKB gamma antibody (UBI 306-607) and incubated end over end at 4 deg C. […] All vials were counted for one minute in the scintillation counter.
(§2) A kinase assay in cells was also performed using anti PKB alpha and gamma antibodies in order to determine any inhibition of the isoforms by KP-23172. U87 cells were treated with 5 uM compound, lysed, and the resulting supernatant was analyzed for any changed in PKB activity. […]

[1] = system: A-549 (human lung carcinoma); test: [3H] thymidine uptake cell proliferation assay, A549; type: cell-based
B16-F1 (murine melanoma) = test: [3H] thymidine uptake cell proliferation assay, B16F1; type: cell-based; conditions: Mus musculus, read-out: Cell Proliferation Effects (IC50 (nM))
PKB = test: Time course kinase assay in U87 cells, immunoprecipitated with PKB/PH specific antibody; type: cell-based, human; conditions: for PKB activity, % of control: 5 uM, background about 15% of control
Method: The compound was added to culture at mid-logarithmic growth which were harvested at specific time intervals. In preparation for this assay, each cell line was seeded at a density of 3 times 1,000,000 cells per plate onto 150 mm culture dishes and allowed to establish o/n at 37 deg C. A confluency of 50–60% was obtained to ensure maximal drug penetration into each cell. Once the cells were adherent to the culture plates, there were treated with PKB inhibitor KP-23172 for a final conc. of 5 uM. Each culture plate was lysed on ice at specific time intervals using 1% NP-40 lysis buffer containing various protease inhibitors; 10 ug/uL aprotinin, 10 ug/ul leupeptin, 1 ug/ul pepstatin, 1 M beta-glycerophosphate and 100 mM PMSF. The resulting lysates were centrifuged at 15K×g at 4 deg C. for 5 min and then assayed for its protein conc. using Bradford's Reagent and absorbance measurements at 595 nm. […] Each sample was then centrifuged at 14K×g for 2 min at 4 deg C. and the s/n aspirated off. Beads were thoroughly washed twice with lysis buffer, then with Assay Dilution Buffer. When any unbound proteins have been completely washed away from the beads, 30 uL of ADB was added along with 10 uL of PDB substrate. Tubes were immediately incubated in 30 deg. C. water baths after the kinase reaction was allowed to commence with the addition of 10 uL assay (gamma32P)ATP. […] All vials were counted for one minute in the scintillation counter. To determine the potency of KP-23172, U87 cells were plated onto 150 mm petri plates and treated with 5 uM KP-23172. After incubation at 37 deg C. under 5% CO2 for the specified time, cells were lysed and the supernatant extracted for kinase analysis. All samples were immunoprecipitated with PKB/PH specific antibody and kinase activity. measured using a short amino acid peptide as the substrate. […] Background was about 15% of control.

PKB alpha = target: T2, PKB alpha (Homo sapiens, UniProt P31749); test: Kinase assay in U87 cells using anti PKB alpha antibody; type: cell-based; conditions: U-87 MG, 1 h, after 60 min, read-out: PKB alpha isoform activity, reduction of activity to
T2 construct: endogenous in cells; host or cells: U87 cells
T2 sequence (P31749 whole entry, canonical isoform): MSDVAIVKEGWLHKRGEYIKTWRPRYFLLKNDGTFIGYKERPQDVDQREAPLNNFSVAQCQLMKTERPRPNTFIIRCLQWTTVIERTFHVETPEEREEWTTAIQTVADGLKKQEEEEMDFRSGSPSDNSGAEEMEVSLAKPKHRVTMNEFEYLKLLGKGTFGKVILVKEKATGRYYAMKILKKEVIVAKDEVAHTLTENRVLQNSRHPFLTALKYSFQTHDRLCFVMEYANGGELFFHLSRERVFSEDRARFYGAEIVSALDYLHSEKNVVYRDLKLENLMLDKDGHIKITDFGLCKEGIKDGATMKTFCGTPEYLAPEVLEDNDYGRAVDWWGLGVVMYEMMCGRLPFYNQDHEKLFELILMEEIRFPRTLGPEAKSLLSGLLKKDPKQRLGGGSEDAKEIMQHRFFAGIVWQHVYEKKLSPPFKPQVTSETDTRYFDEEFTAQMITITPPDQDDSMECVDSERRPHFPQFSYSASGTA
Method: as §1, §2

DU-145 (human carcinoma) = test: [3H] thymidine uptake cell proliferation assay, DU145; type: cell-based; conditions: read-out: Cell Proliferation Effects (IC50 (nM))
[2] = system: LS-180 (human colon carcinoma); test: [3H] thymidine uptake cell proliferation assay, LS180; type: cell-based; conditions: read-out: Cell Proliferation Effects (IC50 (nM))
U-87 (human glioma) = test: [3H] thymidine uptake cell proliferation assay, U87; type: cell-based
Method: Compounds were added to culture at mid-logarithmic growth and incubated for 20 hours. (N=8 for the values+standard errors). […] Cell lines A-549 (human lung carcinoma), B16-F1 (murine melanoma), B16-F10 (murine melanoma), DU-145 (human […] carcinoma), LS-180 (human colon carcinoma), PC3 (human prostate carcinoma), SKOV-3 (human ovarian carcinoma), U-87 (human glioma), and NIH-3T3 (murine embryonic fibroblasts) were all cultured in DMEM supplemented with 10% fetal bovine serum. M3 murine melanoma cells were cultured in DMEM/F12 1:1, and HT-29 human colon carcinoma and LL2 Lewis Lung […] lung carcinoma were cultured in RPMI1640. All the foregoing cell lines were obtained from ATCC. All cells were passaged regularly using 0.25% Trypsin-EDTA in order to maintain cells at exponential growth for various experiments. LS 180 cells were passaged without trypsin and were physically scraped off the culture flasks. In vitro [^3H] thymidine uptake assay. Proliferation can be measured by quantifying the amount of [^3H] thymidine uptake into cells using a β-counter, and therefore is a well-established diagnostic tool to measure DNA synthesis within the cells. […] The cells were allowed to adhere to the plates via incubation at 37° C. in 5% CO2 for 12–14 hours. […] Then, 10 μL of the compound was added to the pre-existing 90 μL per well, and incubated further at 37° C. in 5% CO2 for 20 hours. To measure thymidine incorporation, cells were fixed onto the culture wells by slowly adding ¼^th volume of cold 50% TCA into each well (25 μL to each well) and incubated for 1–2 hours at 4° C. Wells were washed 5 times with tap water to remove any free [^3H] thymidine in the media, and air-dried completely at room temperature. Then, 100 μL of scintillation fluid was added to each well and the activity counted using a Wallac Microbeta Counter.

M3 murine melanoma cells = test: [3H] thymidine uptake cell proliferation assay, M3; type: cell-based; conditions: Mus musculus, read-out: Cell Proliferation Effects (IC50 (nM))

T1 sequence (Q9Y243 whole entry, canonical isoform): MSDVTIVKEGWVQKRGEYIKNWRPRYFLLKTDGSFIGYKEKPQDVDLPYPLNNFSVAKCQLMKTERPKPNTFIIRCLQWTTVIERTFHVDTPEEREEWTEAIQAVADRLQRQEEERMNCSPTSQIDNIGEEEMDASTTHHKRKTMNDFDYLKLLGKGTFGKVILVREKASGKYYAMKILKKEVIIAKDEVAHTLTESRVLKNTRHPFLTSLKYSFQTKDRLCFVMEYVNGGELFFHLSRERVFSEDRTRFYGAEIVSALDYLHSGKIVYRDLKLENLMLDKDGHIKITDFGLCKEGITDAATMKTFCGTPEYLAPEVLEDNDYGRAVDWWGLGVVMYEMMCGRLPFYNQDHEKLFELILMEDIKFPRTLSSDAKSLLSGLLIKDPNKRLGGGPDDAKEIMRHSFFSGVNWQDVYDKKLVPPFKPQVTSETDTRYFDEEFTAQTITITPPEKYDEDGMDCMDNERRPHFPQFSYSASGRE

Question: With `O=C1c2ccccc2-c2nc3nnnn3nc21` [KP-23172] as the molecule, how does the activity at 5 µM (PKB gamma) read?
Answer: 18.3%

Question: What about the IC50 ([1]; A459 cells, read-out: Cell Proliferation in A459 IC50 in nm) of the same molecule?
Answer: 80 nM

Question: And the IC50 ([1]; A549, read-out: Cell Proliferation Effects (IC50 (nM)))?
Answer: 80 nM

Question: And the IC50 (B16-F1 (murine melanoma))?
Answer: 60 nM

Question: And the “PKB activity, % of control” value (PKB; after 15 min)?
Answer: 80.4%

Question: And the “PKB activity, % of control” value (PKB; after 30 min)?
Answer: 23.8%

Question: What about the “PKB activity, % of control” value (PKB; after 60 min) of the same molecule?
Answer: 38.5%

Question: And the “levels of the kinase in time course kinase assay” value (PKB; 5 iM, after 60 minutes)?
Answer: significantly decreased levels of the kinase

Question: And the activity at 5 µM (PKB alpha)?
Answer: 29.6%

Question: What about the IC50 (DU-145 (human carcinoma)) of the same molecule?
Answer: 50 nM

Question: What about the IC50 [2] of the same molecule?
Answer: 80 nM

Question: What about the IC50 (U-87 (human glioma); U-87 MG, U87, read-out: Cell Proliferation Effects (IC50 (nM))) of the same molecule?
Answer: 50 nM

Question: What about the IC50 (U-87 (human glioma); added at mid-logarithmic growth, incubated 20 hours, N=8, read-out: U87 proliferation (thymidine incorporation) IC50, FIG. 1) of the same molecule?
Answer: 50 nM

Question: And the IC50 (M3 murine melanoma cells)?
Answer: 25 nM
